Data as given in patent US9695155B2, “Herbicidal substituted pyrimidinyloxy benzene compounds” (E. I. DU PONT DE NEMOURS AND COMPANY, priority 2013, dated 2017).

Legend:
Test in all cases: Test C preemergence
[1] = system: blackgrass; assay type: in vivo, Alopecurus myosuroides; conditions: Alopecurus myosuroides, pre-emergence
How it was run: (§1)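 Visual ratings on a 0–100 scale (100 = complete control) were made versus untreated controls after 13–15 greenhouse days. Chemicals in a surfactant-containing non-phytotoxic solvent were applied either preemergence to seeds in loam–sand soil or postemergence to 1- to 4-leaf plants 2–18 cm tall.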

[2] = system: Italian ryegrass; assay type: in vivo, Lolium multiflorum; conditions: Lolium multiflorum, pre-emergence
How it was run: as §1

[3] = system: wheat, winter; assay type: in vivo, Triticum aestivum; conditions: Triticum aestivum, pre-emergence
How it was run: as §1

[4] = system: galium; assay type: in vivo, Galium aparine; conditions: Galium, pre-emergence
How it was run: as §1

[5] = system: corn; assay type: in vivo, Zea mays; conditions: Zea mays, pre-emergence
How it was run: as §1

[6] = system: giant foxtail; assay type: in vivo, Setaria faberii; conditions: Setaria faberi, pre-emergence
How it was run: as §1

[7] = system: johnsongrass; assay type: in vivo, Sorghum halepense; conditions: Sorghum halepense, pre-emergence
How it was run: as §1

[8] = system: lambsquarters; assay type: in vivo, Chenopodium album; conditions: Chenopodium album, pre-emergence
How it was run: as §1

[9] = system: morningglory; assay type: in vivo, Ipomoea coccinea; conditions: Ipomoea, pre-emergence
How it was run: as §1

[10] = system: ragweed; assay type: in vivo, Ambrosia elatior; conditions: Ambrosia artemisiifolia, pre-emergence
How it was run: as §1

[11] = system: soybean; assay type: in vivo, Glycine max; conditions: Glycine max, pre-emergence
How it was run: as §1

[12] = system: barnyardgrass; assay type: in vivo, Echinochloa crus-galli; conditions: Echinochloa crus-galli, pre-emergence
How it was run: as §1

[13] = system: oilseed rape; assay type: in vivo, Brassica napus; conditions: Brassica napus, pre-emergence
How it was run: as §1

[14] = system: velvetleaf; assay type: in vivo, Abutilon theophrasti; conditions: Abutilon theophrasti, pre-emergence
How it was run: as §1

N#Cc1cccc(Oc2ncc(F)cn2)c1-n1cc(C(F)(F)F)cn1 [Compound 79, 3-[(5-fluoro-2-pyrimidinyl)oxy]-2-[4-(trifluoromethyl)-1H-pyrazol-1-yl]benzonitrile]
pest or weed control at 62 g/ha ([1]; 62 g ai/ha, preemergence, scale 0 (no effect) to 100 (complete control), read-out: Blackgrass plant response rating): 90% | pest or weed control at 125 g/ha ([1]; 125 g ai/ha, preemergence, scale 0 (no effect) to 100 (complete control), read-out: Blackgrass plant response rating): 90% | pest or weed control at 250 g/ha ([1]; 250 g ai/ha, preemergence, scale 0 (no effect) to 100 (complete control), read-out: Blackgrass plant response rating): 90% | pest or weed control at 31 g/ha ([1]; Preemergence, 31 g ai/ha, scale 0 to 100, 0 no effect, 100 complete control, read-out: Plant response rating, Blackgrass): 90% | pest or weed control at 62 g/ha ([2]; 62 g ai/ha, preemergence, scale 0 (no effect) to 100 (complete control), read-out: Ryegrass, Italian plant response rating): 90% | pest or weed control at 125 g/ha ([2]; 125 g ai/ha, preemergence, scale 0 (no effect) to 100 (complete control), read-out: Ryegrass, Italian plant response rating): 90% | pest or weed control at 250 g/ha ([2]; 250 g ai/ha, preemergence, scale 0 (no effect) to 100 (complete control), read-out: Ryegrass, Italian plant response rating): 90% | pest or weed control at 31 g/ha ([2]; Preemergence, 31 g ai/ha, scale 0 to 100, 0 no effect, 100 complete control, read-out: Plant response rating, Ryegrass, Italian): 40% | plant injury at 62 g/ha ([3]; 62 g ai/ha, preemergence, scale 0 (no effect) to 100 (complete control), read-out: Wheat plant response rating): 35% | plant injury at 125 g/ha ([3]; 125 g ai/ha, preemergence, scale 0 (no effect) to 100 (complete control), read-out: Wheat plant response rating): 85% | plant injury at 250 g/ha ([3]; 250 g ai/ha, preemergence, scale 0 (no effect) to 100 (complete control), read-out: Wheat plant response rating): 90% | plant injury at 31 g/ha ([3]; Preemergence, 31 g ai/ha, scale 0 to 100, 0 no effect, 100 complete control, read-out: Plant response rating, Wheat): 10% | pest or weed control at 62 g/ha ([4]; 62 g ai/ha, preemergence, scale 0 (no effect) to 100 (complete control), read-out: Galium plant response rating): 90% | pest or weed control at 125 g/ha ([4]; 125 g ai/ha, preemergence, scale 0 (no effect) to 100 (complete control), read-out: Galium plant response rating): 90% | pest or weed control at 250 g/ha ([4]; 250 g ai/ha, preemergence, scale 0 (no effect) to 100 (complete control), read-out: Galium plant response rating): 90% | pest or weed control at 31 g/ha ([4]; Preemergence, 31 g ai/ha, scale 0 to 100, 0 no effect, 100 complete control, read-out: Plant response rating, Galium): 90% | plant injury at 125 g/ha ([5]; 125 g ai/ha, preemergence, scale 0 (no effect) to 100 (complete control), read-out: Corn plant response rating): 80% | plant injury at 250 g/ha ([5]; 250 g ai/ha, preemergence, scale 0 (no effect) to 100 (complete control), read-out: Corn plant response rating): 95% | Corn plant response rating (crop injury, 0 = no effect, 100 = complete kill) at 31 g/ha ([5]; Preemergence, 31 g ai/ha, scale 0 to 100, 0 no effect, 100 complete control): 40% | pest or weed control at 62 g/ha ([6]; 62 g ai/ha, preemergence, scale 0 (no effect) to 100 (complete control), read-out: Foxtail, Giant plant response rating): 100% | pest or weed control at 125 g/ha ([6]; 125 g ai/ha, preemergence, scale 0 (no effect) to 100 (complete control), read-out: Foxtail, Giant plant response rating): 100% | pest or weed control at 250 g/ha ([6]; 250 g ai/ha, preemergence, scale 0 (no effect) to 100 (complete control), read-out: Foxtail, Giant plant response rating): 100% | pest or weed control at 31 g/ha ([6]; Preemergence, 31 g ai/ha, scale 0 to 100, 0 no effect, 100 complete control, read-out: Plant response rating, Foxtail, Giant): 98% | pest or weed control at 62 g/ha ([7]; 62 g ai/ha, preemergence, scale 0 (no effect) to 100 (complete control), read-out: Johnsongrass plant response rating): 90% | pest or weed control at 125 g/ha ([7]; 125 g ai/ha, preemergence, scale 0 (no effect) to 100 (complete control), read-out: Johnsongrass plant response rating): 100% | pest or weed control at 250 g/ha ([7]; 250 g ai/ha, preemergence, scale 0 (no effect) to 100 (complete control), read-out: Johnsongrass plant response rating): 100% | pest or weed control at 31 g/ha ([7]; Preemergence, 31 g ai/ha, scale 0 to 100, 0 no effect, 100 complete control, read-out: Plant response rating, Johnsongrass): 75% | pest or weed control at 62 g/ha ([8]; 62 g ai/ha, preemergence, scale 0 (no effect) to 100 (complete control), read-out: Lambsquarters plant response rating): 100% | pest or weed control at 125 g/ha ([8]; 125 g ai/ha, preemergence, scale 0 (no effect) to 100 (complete control), read-out: Lambsquarters plant response rating): 100% | pest or weed control at 250 g/ha ([8]; 250 g ai/ha, preemergence, scale 0 (no effect) to 100 (complete control), read-out: Lambsquarters plant response rating): 100% | pest or weed control at 31 g/ha ([8]; Preemergence, 31 g ai/ha, scale 0 to 100, 0 no effect, 100 complete control, read-out: Plant response rating, Lambsquarters): 100% | pest or weed control at 62 g/ha ([9]; 62 g ai/ha, preemergence, scale 0 (no effect) to 100 (complete control), read-out: Morningglory plant response rating): 100% | pest or weed control at 125 g/ha ([9]; 125 g ai/ha, preemergence, scale 0 (no effect) to 100 (complete control), read-out: Morningglory plant response rating): 100% | pest or weed control at 250 g/ha ([9]; 250 g ai/ha, preemergence, scale 0 (no effect) to 100 (complete control), read-out: Morningglory plant response rating): 100% | pest or weed control at 31 g/ha ([9]; Preemergence, 31 g ai/ha, scale 0 to 100, 0 no effect, 100 complete control, read-out: Plant response rating, Morningglory): 95% | pest or weed control at 62 g/ha ([10]; 62 g ai/ha, preemergence, scale 0 (no effect) to 100 (complete control), read-out: Ragweed plant response rating): 90% | pest or weed control at 125 g/ha ([10]; 125 g ai/ha, preemergence, scale 0 (no effect) to 100 (complete control), read-out: Ragweed plant response rating): 90% | pest or weed control at 250 g/ha ([10]; 250 g ai/ha, preemergence, scale 0 (no effect) to 100 (complete control), read-out: Ragweed plant response rating): 90% | pest or weed control at 31 g/ha ([10]; Preemergence, 31 g ai/ha, scale 0 to 100, 0 no effect, 100 complete control, read-out: Plant response rating, Ragweed): 90% | plant injury at 62 g/ha ([11]; 62 g ai/ha, preemergence, scale 0 (no effect) to 100 (complete control), read-out: Soybean plant response rating): 75% | plant injury at 125 g/ha ([11]; 125 g ai/ha, preemergence, scale 0 (no effect) to 100 (complete control), read-out: Soybean plant response rating): 90% | plant injury at 250 g/ha ([11]; 250 g ai/ha, preemergence, scale 0 (no effect) to 100 (complete control), read-out: Soybean plant response rating): 95% | plant injury at 31 g/ha ([11]; Preemergence, 31 g ai/ha, scale 0 to 100, 0 no effect, 100 complete control, read-out: Plant response rating, Soybean): 75% | pest or weed control at 62 g/ha ([12]; 62 g ai/ha, preemergence, scale 0 (no effect) to 100 (complete control), read-out: Barnyardgrass plant response rating): 100% | pest or weed control at 125 g/ha ([12]; 125 g ai/ha, preemergence, scale 0 (no effect) to 100 (complete control), read-out: Barnyardgrass plant response rating): 100% | pest or weed control at 250 g/ha ([12]; 250 g ai/ha, preemergence, scale 0 (no effect) to 100 (complete control), read-out: Barnyardgrass plant response rating): 100% | pest or weed control at 31 g/ha ([12]; Preemergence, 31 g ai/ha, scale 0 to 100, 0 no effect, 100 complete control, read-out: Plant response rating, Barnyardgrass): 100% | plant injury at 62 g/ha ([13]; 62 g ai/ha, preemergence, scale 0 (no effect) to 100 (complete control), read-out: Oilseed Rape plant response rating): 95% | plant injury at 125 g/ha ([13]; 125 g ai/ha, preemergence, scale 0 (no effect) to 100 (complete control), read-out: Oilseed Rape plant response rating): 95% | plant injury at 250 g/ha ([13]; 250 g ai/ha, preemergence, scale 0 (no effect) to 100 (complete control), read-out: Oilseed Rape plant response rating): 95% | plant injury at 31 g/ha ([13]; Preemergence, 31 g ai/ha, scale 0 to 100, 0 no effect, 100 complete control, read-out: Plant response rating, Oilseed Rape): 90% | pest or weed control at 62 g/ha ([14]; 62 g ai/ha, preemergence, scale 0 (no effect) to 100 (complete control), read-out: Velvetleaf plant response rating): 100% | pest or weed control at 125 g/ha ([14]; 125 g ai/ha, preemergence, scale 0 (no effect) to 100 (complete control), read-out: Velvetleaf plant response rating): 100% | pest or weed control at 250 g/ha ([14]; 250 g ai/ha, preemergence, scale 0 (no effect) to 100 (complete control), read-out: Velvetleaf plant response rating): 100% | pest or weed control at 31 g/ha ([14]; Preemergence, 31 g ai/ha, scale 0 to 100, 0 no effect, 100 complete control, read-out: Plant response rating, Velvetleaf): 90%
